Twelve compounds from patent publication US7326721B2 (Hypnion, Inc., priority 2003, dated 2008) can be followed below.

One series addresses T1, M2 muscarinic receptor (Homo sapiens, UniProt P08172).
T1 sequence (P08172 1-466): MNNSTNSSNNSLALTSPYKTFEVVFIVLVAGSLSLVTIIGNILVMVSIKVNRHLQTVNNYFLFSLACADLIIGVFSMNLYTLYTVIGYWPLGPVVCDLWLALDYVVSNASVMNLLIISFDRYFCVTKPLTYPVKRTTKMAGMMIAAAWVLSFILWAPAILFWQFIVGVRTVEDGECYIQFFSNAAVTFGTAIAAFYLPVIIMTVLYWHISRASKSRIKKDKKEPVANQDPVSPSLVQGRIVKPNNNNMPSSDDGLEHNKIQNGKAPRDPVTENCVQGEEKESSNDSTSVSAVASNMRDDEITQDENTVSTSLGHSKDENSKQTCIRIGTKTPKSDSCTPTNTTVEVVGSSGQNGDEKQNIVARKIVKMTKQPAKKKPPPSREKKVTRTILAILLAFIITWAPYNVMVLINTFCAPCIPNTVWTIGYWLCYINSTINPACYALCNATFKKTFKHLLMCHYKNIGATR
Nature of the series: Muscarinic M2 binding assay. Also on record: purchased PerkinElmer, Inc., Wellesley, Mass; host or cells: CHO cells. The settings on record: for pKi: read-out: Ki M2.

The next series addresses M3 muscarinic receptor (Homo sapiens, UniProt P20309). The experiment in a line: Muscarinic M3 binding assay. Details: purchased PerkinElmer, Inc., Wellesley, Mass; host or cells: CHO cells. The settings on record: read-out: Ki M3.
For another series, the target named is hERG (Homo sapiens, UniProt Q12809). The settings on record: human, 10 µM, pH 7.4.
In the next series the target is T2, M1 muscarinic receptor (Homo sapiens, UniProt P11229).
T2 sequence (P11229 1-460): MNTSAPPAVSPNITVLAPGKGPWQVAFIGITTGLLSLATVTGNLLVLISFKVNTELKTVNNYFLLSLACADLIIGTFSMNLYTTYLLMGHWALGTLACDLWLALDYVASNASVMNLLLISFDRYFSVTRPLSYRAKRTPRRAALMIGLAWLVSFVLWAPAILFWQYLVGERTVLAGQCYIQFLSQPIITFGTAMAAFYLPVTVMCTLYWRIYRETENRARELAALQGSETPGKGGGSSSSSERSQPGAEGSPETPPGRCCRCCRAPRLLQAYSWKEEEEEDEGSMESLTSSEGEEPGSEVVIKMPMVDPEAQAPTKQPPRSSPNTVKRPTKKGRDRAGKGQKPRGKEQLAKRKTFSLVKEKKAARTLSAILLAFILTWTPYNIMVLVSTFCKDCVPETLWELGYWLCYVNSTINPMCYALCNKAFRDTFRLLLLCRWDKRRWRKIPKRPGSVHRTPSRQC
The experiment in a line: Muscarinic M1 binding assay ([3H]-scopolamine, N-methyl chloride). Also on record: purchased PerkinElmer, Inc., Wellesley, Mass; host or cells: CHO cells. The settings on record: read-out: Ki M1.

In another series the target is T3, H1 histamine receptor (Bos taurus, UniProt P30546).
T3 construct: the receptors were obtained from bovine cerebellar membrane tissue; from tissue; host or cells: bovine cerebellar membranes
Nature of the series: Histamine H1 competitive binding assay ([3H]pyrilamine). Also on record: species or system bovine. The settings on record: read-out: Ki H1.

The subject of a further series is adult male Wistar rats. The experiment in a line: SCORE-2000 sleep-wakefulness, locomotor activity and body temperature monitoring. The series is classed as in vivo, rat.

pKi: −log10 of the molar value.

Sequence of hERG (Q12809 whole entry): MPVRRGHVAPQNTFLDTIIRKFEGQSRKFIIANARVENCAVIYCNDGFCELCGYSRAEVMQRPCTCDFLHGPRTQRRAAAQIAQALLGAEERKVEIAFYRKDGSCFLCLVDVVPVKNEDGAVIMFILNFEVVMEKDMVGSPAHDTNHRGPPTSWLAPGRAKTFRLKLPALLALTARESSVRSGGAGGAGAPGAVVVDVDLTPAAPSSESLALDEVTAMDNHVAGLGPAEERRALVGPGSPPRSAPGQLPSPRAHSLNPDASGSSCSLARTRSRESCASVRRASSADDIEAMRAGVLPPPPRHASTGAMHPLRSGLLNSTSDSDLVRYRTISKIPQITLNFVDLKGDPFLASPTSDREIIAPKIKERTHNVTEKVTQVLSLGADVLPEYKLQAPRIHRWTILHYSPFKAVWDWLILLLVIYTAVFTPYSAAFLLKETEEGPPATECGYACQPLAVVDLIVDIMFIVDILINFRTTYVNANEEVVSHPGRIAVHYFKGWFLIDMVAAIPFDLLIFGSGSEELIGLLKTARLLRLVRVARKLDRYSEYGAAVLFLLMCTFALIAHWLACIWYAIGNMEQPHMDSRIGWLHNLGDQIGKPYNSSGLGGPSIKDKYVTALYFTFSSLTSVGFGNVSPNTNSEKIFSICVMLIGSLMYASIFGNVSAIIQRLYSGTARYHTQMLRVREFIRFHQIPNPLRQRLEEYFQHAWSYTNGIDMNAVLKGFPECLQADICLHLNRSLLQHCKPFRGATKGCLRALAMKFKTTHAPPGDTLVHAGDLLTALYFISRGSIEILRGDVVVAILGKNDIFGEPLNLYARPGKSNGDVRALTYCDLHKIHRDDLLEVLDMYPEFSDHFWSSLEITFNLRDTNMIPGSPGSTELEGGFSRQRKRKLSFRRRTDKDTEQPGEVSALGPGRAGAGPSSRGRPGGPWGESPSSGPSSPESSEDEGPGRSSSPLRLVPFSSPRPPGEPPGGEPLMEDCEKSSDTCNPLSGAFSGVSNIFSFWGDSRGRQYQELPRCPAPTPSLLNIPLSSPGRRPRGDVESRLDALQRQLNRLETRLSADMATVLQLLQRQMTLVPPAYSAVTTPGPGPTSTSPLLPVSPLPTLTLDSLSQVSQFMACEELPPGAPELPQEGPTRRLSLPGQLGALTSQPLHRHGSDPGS
T3 sequence (P30546 whole entry): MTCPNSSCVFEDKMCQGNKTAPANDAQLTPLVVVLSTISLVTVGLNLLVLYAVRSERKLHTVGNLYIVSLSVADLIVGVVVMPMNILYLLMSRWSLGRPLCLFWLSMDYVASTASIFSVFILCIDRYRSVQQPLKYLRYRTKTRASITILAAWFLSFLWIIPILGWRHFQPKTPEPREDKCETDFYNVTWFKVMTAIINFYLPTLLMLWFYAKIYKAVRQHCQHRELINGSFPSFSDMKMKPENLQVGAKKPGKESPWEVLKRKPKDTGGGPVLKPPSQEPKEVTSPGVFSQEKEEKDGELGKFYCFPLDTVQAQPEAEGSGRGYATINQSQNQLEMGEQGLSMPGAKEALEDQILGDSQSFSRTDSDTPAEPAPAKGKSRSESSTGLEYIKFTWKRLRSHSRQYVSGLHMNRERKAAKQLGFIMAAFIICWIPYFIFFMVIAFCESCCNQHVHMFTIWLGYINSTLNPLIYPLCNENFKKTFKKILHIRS
Sequence of M3 muscarinic receptor (P20309 whole entry): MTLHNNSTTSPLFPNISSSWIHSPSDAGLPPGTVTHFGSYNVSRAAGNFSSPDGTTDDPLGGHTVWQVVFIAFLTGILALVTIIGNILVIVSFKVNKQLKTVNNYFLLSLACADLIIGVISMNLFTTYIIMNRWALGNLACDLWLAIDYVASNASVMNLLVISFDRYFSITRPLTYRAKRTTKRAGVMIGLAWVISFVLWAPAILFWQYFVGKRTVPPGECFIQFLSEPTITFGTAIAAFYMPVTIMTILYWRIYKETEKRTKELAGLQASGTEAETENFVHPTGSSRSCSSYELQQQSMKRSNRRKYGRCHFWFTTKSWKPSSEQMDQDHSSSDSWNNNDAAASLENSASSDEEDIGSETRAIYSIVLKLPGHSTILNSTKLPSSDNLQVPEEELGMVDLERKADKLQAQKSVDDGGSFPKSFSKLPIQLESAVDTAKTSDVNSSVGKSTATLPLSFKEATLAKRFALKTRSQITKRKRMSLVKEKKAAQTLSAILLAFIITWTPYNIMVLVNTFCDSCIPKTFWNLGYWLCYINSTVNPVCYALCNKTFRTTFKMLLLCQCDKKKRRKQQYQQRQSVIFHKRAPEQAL

Compound `C[N+]1(C)C2CC(OC(=O)C(CO)c3ccccc3)CC1C1OC12.[Br-]` (single isomer, unassigned; (-)) [(−)-scopolamine, MeBr, (−)-scopolamine, methyl-, bromide, reference compound] came in with a Slope on M2 muscarinic receptor (M2 binding curve (Table 17)) of −0.89.
For orientation: pKi means −log10 of the Ki, conventionally taken in molar units. Regarding `O=C(O)C1(CN2CCC(=C3c4ccc(Cl)cc4COc4ccccc43)CC2)CC1` [Compound 51b], the negative logarithm of the Ki (pKi) at M3 muscarinic receptor is less than 5.00; at M2 muscarinic receptor, less than 5.00; at M1 muscarinic receptor, less than 5.00; at H1 histamine receptor, 7.14. The “hERG at micromolar (% blocking of the hERG channel)” value at hERG amounted to 23% @ 10. For the same compound, the values for the LUSB with adult male Wistar rats (dose 3 mg/kg oral at CT-18), in the series with adult male Wistar rats (dose 10 mg/kg oral at CT-18) and in the series with adult male Wistar rats (dose 30 mg/kg oral at CT-18) were 8.4 min, 8.3 min and 128 min, respectively. The NREM with adult male Wistar rats (dose 3 mg/kg oral at CT-18) came to 34.7 min; with adult male Wistar rats (dose 10 mg/kg oral at CT-18) it was 45 min; in the series on adult male Wistar rats (dose 30 mg/kg oral at CT-18), 60.4 min.
Turning to `COc1ccc2c(c1)COc1ccc(F)cc1C2=C1CCN(CC(C)(C)C(=O)O)CC1` [Compound 47a], the negative logarithm of the Ki (pKi) at M3 muscarinic receptor was less than 5.00; on M2 muscarinic receptor, less than 5.00; at M1 muscarinic receptor, less than 5.00; on H1 histamine receptor it was 6.95. Further, the “hERG at micromolar (% blocking of the hERG channel)” value at hERG came to 1% @ 10. The LUSB stood at 2.9 min with adult male Wistar rats (dose 1 mg/kg oral at CT-18), 5.5 min with adult male Wistar rats (dose 3 mg/kg oral at CT-18), 16.7 min with adult male Wistar rats (dose 10 mg/kg oral at CT-18) and 10 min in the series on adult male Wistar rats (dose 30 mg/kg oral at CT-18). The NREM turned out to be 5.5 min with adult male Wistar rats (dose 1 mg/kg oral at CT-18), 32.3 min in the series on adult male Wistar rats (dose 3 mg/kg oral at CT-18), 41.1 min with adult male Wistar rats (dose 10 mg/kg oral at CT-18) and 56.9 min in the series with adult male Wistar rats (dose 30 mg/kg oral at CT-18).
On to `O=C(O)C1(CN2CCC(=C3c4ccc(F)cc4COc4ccccc43)CC2)CC1` [Compound 49b], for which the pKi on M3 muscarinic receptor was less than 5.00; at M2 muscarinic receptor it was less than 5.00; at M1 muscarinic receptor, less than 5.00; on H1 histamine receptor, 7.21. Besides, on hERG, the “hERG at micromolar (% blocking of the hERG channel)” value is listed as 3.1% @ 10. Further, the LUSB in the series on adult male Wistar rats (dose 3 mg/kg oral at CT-18) was 10.4 min; with adult male Wistar rats (dose 10 mg/kg oral at CT-18), 13.1 min; in the series with adult male Wistar rats (dose 30 mg/kg oral at CT-18) it was 15.9 min. Also, the NREM in the series with adult male Wistar rats (dose 3 mg/kg oral at CT-18) was 22.5 min; in the series on adult male Wistar rats (dose 10 mg/kg oral at CT-18) it was 47.3 min; in the series with adult male Wistar rats (dose 30 mg/kg oral at CT-18), 43.2 min.
Take `COc1ccc2c(c1)C(=C1CCN(CC(C)(C)C(=O)O)CC1)c1ccc(F)cc1CO2` [Compound 46a]: the negative-log Ki (pKi) was less than 5.00 at M3 muscarinic receptor, 5.61 on M2 muscarinic receptor, less than 5.00 at M1 muscarinic receptor and 6.87 on H1 histamine receptor. In addition, the LUSB in the series with adult male Wistar rats (dose 3 mg/kg oral at CT-18) came to 5 min; in the series on adult male Wistar rats (dose 10 mg/kg oral at CT-18), 8.2 min. Further, the NREM stood at 12.1 min in the series with adult male Wistar rats (dose 3 mg/kg oral at CT-18) and 36 min with adult male Wistar rats (dose 10 mg/kg oral at CT-18).
As for `COc1ccc2c(c1)COc1ccccc1C2=C1CCN(CC2(C(=O)O)CC2)CC1` [Compound 50b], the negative logarithm of the Ki (pKi) at M3 muscarinic receptor was less than 5.00; at M2 muscarinic receptor it was less than 5.00; at M1 muscarinic receptor it was less than 5.00; on H1 histamine receptor, 7.16. Moreover, the “hERG at micromolar (% blocking of the hERG channel)” value at hERG was determined as 27.1% @ 10. Further, the LUSB with adult male Wistar rats (dose 3 mg/kg oral at CT-18) was found to be 6.9 min; in the series with adult male Wistar rats (dose 10 mg/kg oral at CT-18) it was 8.1 min; in the series on adult male Wistar rats (dose 30 mg/kg oral at CT-18), 14.3 min. Besides, the NREM in the series with adult male Wistar rats (dose 3 mg/kg oral at CT-18) was determined as 10.7 min; with adult male Wistar rats (dose 10 mg/kg oral at CT-18), 24.2 min; with adult male Wistar rats (dose 30 mg/kg oral at CT-18), 51.9 min.
For the compound `COc1ccc2c(c1)COc1ccccc1C2=C1CCN(CCC2(C(=O)O)CC2)CC1` [Compound 62b], the negative-log Ki (pKi) on M3 muscarinic receptor is less than 5.00; at M2 muscarinic receptor it was less than 5.00; at M1 muscarinic receptor, less than 5.00; at H1 histamine receptor, 7.25.
`CCC(CC)(CN1CCC(=C2c3ccc(F)cc3COc3ccccc32)CC1)C(=O)O` [Compound 49c]: the pKi at M3 muscarinic receptor was less than 5.00; at M2 muscarinic receptor it was less than 5.00; on M1 muscarinic receptor, less than 5.00; at H1 histamine receptor, 7.52. In addition, the “hERG at micromolar (% blocking of the hERG channel)” value at hERG is 19.7% @ 10.
Take `O=C(O)C1(CCN2CCC(=C3c4ccc(F)cc4COc4ccccc43)CC2)CC1` [Compound 61b]: the negative logarithm of the Ki (pKi) is less than 5.00 on M3 muscarinic receptor, 5.51 at M2 muscarinic receptor, 6.24 at M1 muscarinic receptor and 7.91 on H1 histamine receptor. Further, on hERG, the “hERG at micromolar (% blocking of the hERG channel)” value is 85.9% @ 10. Besides, the LUSB was determined as 3.6 min in the series with adult male Wistar rats (dose 3 mg/kg oral at CT-18), 14.6 min in the series on adult male Wistar rats (dose 10 mg/kg oral at CT-18) and 9.7 min in the series on adult male Wistar rats (dose 30 mg/kg oral at CT-18). The results for the NREM with adult male Wistar rats (dose 3 mg/kg oral at CT-18), in the series on adult male Wistar rats (dose 10 mg/kg oral at CT-18) and with adult male Wistar rats (dose 30 mg/kg oral at CT-18) were 11.3 min, 34.8 min and 57.4 min, respectively.
Regarding `CC(C)(CCN1CCC(=C2c3ccc(F)cc3COc3ccccc32)CC1)C(=O)O` [Compound 61a], the pKi on M3 muscarinic receptor was less than 5.00; on M2 muscarinic receptor, less than 5.00; on M1 muscarinic receptor, less than 5.00; on H1 histamine receptor, 6.74. In addition, the “hERG at micromolar (% blocking of the hERG channel)” value at hERG amounted to 12.6% @ 10. The LUSB in the series with adult male Wistar rats (dose 3 mg/kg oral at CT-18) amounted to 3.1 min; with adult male Wistar rats (dose 10 mg/kg oral at CT-18), 9.7 min; with adult male Wistar rats (dose 30 mg/kg oral at CT-18), 10.1 min. The NREM was found to be 13.9 min in the series on adult male Wistar rats (dose 3 mg/kg oral at CT-18), 24 min in the series on adult male Wistar rats (dose 10 mg/kg oral at CT-18) and 45.8 min in the series with adult male Wistar rats (dose 30 mg/kg oral at CT-18).
Regarding `COc1ccc2c(c1)COc1ccccc1C2=C1CCN(CCC(C)(C)C(=O)O)CC1` [Compound 62a], the pKi at M3 muscarinic receptor was less than 5.00; on M2 muscarinic receptor it was less than 5.00; on M1 muscarinic receptor, less than 5.00; at H1 histamine receptor, 6.89. Besides, the “hERG at micromolar (% blocking of the hERG channel)” value on hERG came to 13.6% @ 10. Further, the LUSB in the series with adult male Wistar rats (dose 10 mg/kg oral at CT-18) came to 7.4 min; with adult male Wistar rats (dose 30 mg/kg oral at CT-18), 9.1 min. Besides, the NREM came to 23.2 min in the series on adult male Wistar rats (dose 10 mg/kg oral at CT-18) and 25.2 min with adult male Wistar rats (dose 30 mg/kg oral at CT-18).
Consider `COc1ccc2c(c1)C(=C1CCN(CCC3(C(=O)O)CC3)CC1)c1ccccc1CO2` [Compound 67b], for which the negative-log Ki (pKi) at M3 muscarinic receptor was less than 5.00; on M2 muscarinic receptor, less than 5.00; on M1 muscarinic receptor, less than 5.00; at H1 histamine receptor, 7.20. Further, the figures for the LUSB in the series with adult male Wistar rats (dose 10 mg/kg oral at CT-18) and in the series on adult male Wistar rats (dose 30 mg/kg oral at CT-18) were 4.6 min and 10 min, respectively. The NREM with adult male Wistar rats (dose 10 mg/kg oral at CT-18) came out at 12.6 min; with adult male Wistar rats (dose 30 mg/kg oral at CT-18), 21.1 min.
